Measured values: patent EP4592286A1, “MACROCYCLIC NITROGEN-CONTAINING CROWN ETHER COMPOUND AND USE THEREOF AS PROTEIN KINASE INHIBITOR” (Artivila Biopharma, priority 2022, dated 2024)

What was measured:
[1] = target: T1, endogenous phosphorylated LRRK2 (S935) (Homo sapiens, UniProt Q5S007); test: detection of endogenous phosphorylated LRRK2 (S935) in A549 cells (Western blot); type: cell-based; details: 15 hours; for inhibition at 2 µM / inhibition at 1 µM: LRRK2 (S935) activity in A549 cells, read-out: Inhibition rate; for IC50: A549 cells, Table 11, read-out: IC50 of inhibitory activity on LRRK2 (S935) activity in A549 cells (column head: Inhibition rate)
T1 construct: Detection of endogenous phosphorylated LRRK2 (S935) in A549 cells; endogenous in cells; host or cells: A549
T1 sequence (Q5S007 whole entry): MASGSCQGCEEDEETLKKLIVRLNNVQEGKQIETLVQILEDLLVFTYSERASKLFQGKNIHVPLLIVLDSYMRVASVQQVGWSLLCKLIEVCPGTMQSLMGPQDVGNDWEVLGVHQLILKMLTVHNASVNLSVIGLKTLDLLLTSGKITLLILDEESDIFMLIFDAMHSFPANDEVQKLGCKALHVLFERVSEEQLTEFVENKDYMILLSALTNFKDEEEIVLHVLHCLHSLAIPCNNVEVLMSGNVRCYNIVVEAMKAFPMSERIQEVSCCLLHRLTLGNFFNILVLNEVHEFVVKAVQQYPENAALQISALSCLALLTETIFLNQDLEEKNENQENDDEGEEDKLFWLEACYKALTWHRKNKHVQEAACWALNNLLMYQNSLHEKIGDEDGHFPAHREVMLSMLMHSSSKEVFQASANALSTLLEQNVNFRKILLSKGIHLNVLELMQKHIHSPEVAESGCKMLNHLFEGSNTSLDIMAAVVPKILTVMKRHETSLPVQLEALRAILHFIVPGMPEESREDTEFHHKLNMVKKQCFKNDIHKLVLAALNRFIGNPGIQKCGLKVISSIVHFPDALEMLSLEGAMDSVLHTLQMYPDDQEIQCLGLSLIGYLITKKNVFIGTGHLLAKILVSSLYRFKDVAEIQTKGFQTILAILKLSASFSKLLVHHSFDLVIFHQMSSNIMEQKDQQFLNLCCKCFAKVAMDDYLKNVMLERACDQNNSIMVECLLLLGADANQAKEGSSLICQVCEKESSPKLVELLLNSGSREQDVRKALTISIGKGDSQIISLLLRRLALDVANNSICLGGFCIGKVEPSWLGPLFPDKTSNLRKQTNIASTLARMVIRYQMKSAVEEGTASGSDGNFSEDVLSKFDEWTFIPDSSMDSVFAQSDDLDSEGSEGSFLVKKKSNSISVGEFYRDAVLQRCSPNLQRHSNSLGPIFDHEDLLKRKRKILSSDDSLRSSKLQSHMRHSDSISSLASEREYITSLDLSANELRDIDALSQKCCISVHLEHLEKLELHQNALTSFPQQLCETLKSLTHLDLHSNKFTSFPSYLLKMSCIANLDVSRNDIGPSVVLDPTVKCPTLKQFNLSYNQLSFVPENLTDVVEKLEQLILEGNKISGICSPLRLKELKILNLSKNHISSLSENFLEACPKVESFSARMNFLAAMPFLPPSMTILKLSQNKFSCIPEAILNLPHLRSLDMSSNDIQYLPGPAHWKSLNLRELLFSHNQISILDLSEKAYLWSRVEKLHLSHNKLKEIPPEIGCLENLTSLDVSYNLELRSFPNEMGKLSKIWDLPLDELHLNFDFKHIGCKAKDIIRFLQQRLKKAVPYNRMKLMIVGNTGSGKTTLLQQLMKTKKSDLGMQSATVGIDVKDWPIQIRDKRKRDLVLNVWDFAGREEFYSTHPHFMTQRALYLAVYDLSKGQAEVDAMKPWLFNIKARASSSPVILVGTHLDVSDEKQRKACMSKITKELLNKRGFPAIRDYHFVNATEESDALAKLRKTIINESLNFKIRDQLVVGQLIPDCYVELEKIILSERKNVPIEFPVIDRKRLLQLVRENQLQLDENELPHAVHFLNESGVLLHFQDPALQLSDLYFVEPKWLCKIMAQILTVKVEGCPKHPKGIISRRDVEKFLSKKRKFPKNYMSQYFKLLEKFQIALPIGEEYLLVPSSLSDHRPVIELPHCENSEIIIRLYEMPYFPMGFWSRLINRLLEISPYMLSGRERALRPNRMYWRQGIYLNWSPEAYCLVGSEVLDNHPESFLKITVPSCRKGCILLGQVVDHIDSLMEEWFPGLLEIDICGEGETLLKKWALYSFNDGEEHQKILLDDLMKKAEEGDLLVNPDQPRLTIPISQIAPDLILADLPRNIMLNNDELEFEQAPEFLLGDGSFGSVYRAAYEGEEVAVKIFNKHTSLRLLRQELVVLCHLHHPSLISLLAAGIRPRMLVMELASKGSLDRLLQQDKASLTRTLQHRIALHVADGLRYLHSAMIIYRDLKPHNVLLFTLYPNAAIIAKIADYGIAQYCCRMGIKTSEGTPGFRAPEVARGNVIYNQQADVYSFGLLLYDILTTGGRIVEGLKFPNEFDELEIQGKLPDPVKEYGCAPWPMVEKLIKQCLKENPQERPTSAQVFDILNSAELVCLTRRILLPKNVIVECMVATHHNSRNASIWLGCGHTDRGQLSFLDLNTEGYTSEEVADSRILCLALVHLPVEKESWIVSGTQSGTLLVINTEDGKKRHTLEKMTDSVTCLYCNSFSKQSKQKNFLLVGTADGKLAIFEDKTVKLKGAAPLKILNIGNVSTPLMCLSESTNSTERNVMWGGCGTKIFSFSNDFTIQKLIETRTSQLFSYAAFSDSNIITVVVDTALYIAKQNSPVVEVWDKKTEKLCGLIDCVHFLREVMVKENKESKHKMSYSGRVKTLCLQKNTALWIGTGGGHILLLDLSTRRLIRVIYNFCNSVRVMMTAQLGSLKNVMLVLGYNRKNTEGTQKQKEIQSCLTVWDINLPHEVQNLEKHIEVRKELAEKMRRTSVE
Description: Detection of endogenous phosphorylated LRRK2 (S935) in A549 cells
A549 cells were resuspended in serum-free 1640 medium at a density of 1×10^6 cells/ml, and inoculated into a 6-well plate at 1 ml/well, and cultured at 37°C and 5% CO2 for 6-8 hours. 1 microliter of compound solution in DMSO or DMSO (volume ratio of 0.1%) was added, mixed evenly, and cultivated at 37°C and 5% CO2 for 15 hours. Cells were collected, 50 microliters of RIPA III lysis solution were added to each sample to lyse cells on ice for 15 minutes, centrifuged at 4°C and 13000 rpm for 30 minutes, the supernatant was collected, the protein concentration of cell lysis solution was measured by BCA, and the protein concentrations of all samples were normalized. 5×sample loading buffer were added and kept at 95°C for 10 minutes. The content of phosphorylated S935 of endogenous LRRK2 was detected by Western blot, using antibody against phosphorylated LRRK2 (S935) (Abcam#133450). The signal intensity of phosphorylated LRRK2 (S935) was counted by Image J, the signal of phosphorylated LRRK2 (S935) in a sample was normalized by β-actin, and the data was analyzed.

[2] = target: LRRK2 (Homo sapiens, UniProt Q5S007); test: experiment of inhibiting LRRK2 kinase activity (ADP-Glo method); type: biochemical; details: Table 4
LRRK2, sequence (Q5S007 whole entry): as above
Description: The inhibitory effect of the compounds on the activity of LRRK2 kinase was detected by ADP-Glo method. The diluted solutions of the compounds were transfered to a 384-well plate (784075, Greiner), the plate was sealed and centrifuged at a speed of 1000 g for 1 minute. A kinase solution at 2-fold final concentration was prepared with 1×kinase buffer, 2.5 µl of the kinase solution with 2-fold final concentration was added to the wells, the plate was centrifuged at 1000 g for 30 seconds, and left at room temperature for 10 minutes. A mixed solution of ATP and kinase substrate at 2-fold final concentration was prepared with 1×kinase buffer, and 2.5 µL of mixed solution of ATP and substrate at 2-fold final concentration was added to start the reaction. The plate was centrifuged at 1000 g for 30 seconds, sealed and left at room temperature for 2 hours. 4 µL of ADP-Glo reagent was added and incubated at room temperature for 40 minutes; 8 µL kinase detection reagent was added and incubated at room temperature for another 40 minutes. The luminescence signal value was detected on Envision 2104 microplate reader. The conversion inhibition rate%=100-(compound signal value-positive control signal value)/(blank control signal value-positive control signal value)×100.
The IC50 was calculated with GraphPad 6.0 and the dose-responsive curve of the compounds was plotted as follows: y=Bottom+(Top-Bottom)/(1+10^((logic50-x)×hillslope)), where x was logarithm of inhibitor concentration; and y was % inhibition rate.

IC50 [2]	SMILES	other results
< 100 nM	CN1CCOc2ccc(Nc3ncc(C(F)(F)F)c(Nc4ccccc4)n3)cc2OCC1 [Example 91, N^2-(4-methyl-3,4,5,6-tetrahydro-2H-benzo[b][1,4,7]dioxazolin-9-yl)-N^4-phenyl-5-(trifluoromethyl)pyrimidin-2,4-diamine]	IC50 [1]: < 100 nM
< 100 nM	CN1CCOc2ccc(Nc3ncc(C(F)(F)F)c(NC[C@@H]4CCO4)n3)cc2OCC1 [Example 92, (S)-N^2-(4-methyl-3,4,5,6-tetrahydro-2H-benzo[b][1,4,7]dioxazolin-9-yl)-N^4-(oxetan-2-ylmethyl)-5-(trifluoromethyl)pyrimidin-2,4-diamine]	inhibition at 2 µM [1]: 40 to 79%
< 100 nM	COc1ccccc1Nc1nc(Nc2ccc3c(c2)OCCN(C)CCO3)ncc1C(F)(F)F [Example 95, N^4-(2-methoxyphenyl)-N^2-(4-methyl-3,4,5,6-tetrahydro-2H-benzo[b][1,4,7]dioxazolin-9-yl)-5-(trifluoromethyl)pyrimidin-2,4-diamine]	
< 100 nM	COCc1ccccc1Nc1nc(Nc2ccc3c(c2)OCCN(C)CCOCCO3)ncc1C(F)(F)F [Example 116, N^4-(2-(methoxymethyl)phenyl)-N^2-(7-methyl-2,3,6,7,8,9-hexahydro-5H-benzo[b][1,4,7]trioxa[10]azacyclododecan-12-yl)-5-(trifluoromethyl)pyrimidin-2,4-diamine]	

Further lines, the compound ahead of its results:

SMILES	IC50 [2]	other results
CN1CCOc2ccc(Nc3ncc(C(F)(F)F)c(NCC(C)(C)O)n3)cc2OCC1 [Example 8, 2-methyl-1-((2-((4-methyl-3,4,5,6-tetrahydro-2H-benzo[b][1,4,7]dioxazolin-9-yl)amino)-5-(trifluoromethyl)pyrimidin-4-yl)amino)propan-2-ol]		inhibition at 2 µM [1]: > 80%
CN1CCOCCOc2ccc(Nc3nc(O[C@H]4CC[C@](C)(O)CC4)c4cc[nH]c4n3)cc2OCC1 [Example 87, (1r,4r)-1-methyl-4-((2-((7-methyl-2,3,6,7,8,9-hexahydro-5H-benzo[b][1,4,7]trioxa [10]azacyclododecan-12-yl)amino)-7H-pyrrolo[2,3-d]pyrimidin-4-yl)oxy)cyclohexan-1-ol]	< 100 nM	
CN1CCOCCOc2ccc(Nc3ncc(C(F)(F)F)c(NC[C@@H]4CCO4)n3)cc2OCC1 [Example 88, (S)-N^2-(7-methyl-2,3,6,7,8,9-hexahydro-5H-benzo[b][1,4,7]trioxa[10]azacyclododecan-12-yl)-N^4-(oxetan-2-ylmethyl)-5-(trifluoromethyl)pyrimidin-2,4-diamine]		inhibition at 2 µM [1]: > 80%
CN1CCOCCOc2ccc(Nc3ncc(C(F)(F)F)c(NCCS(C)(=O)=O)n3)cc2OCC1 [Example 89, N^2-(7-methyl-2,3,6,7,8,9-hexahydro-5H-benzo[b][1,4,7]trioxa[10]azacyclododecyl-12-yl)-N^4-(2-(methylsulfonyl)ethyl)-5-(trifluoromethyl)pyrimidin-2,4-diamine]		inhibition at 2 µM [1]: 40 to 79%
CN1CCOCCOc2ccc(Nc3nc(NCC(C)(C)O)c4cc[nH]c4n3)cc2OCC1 [Example 90, 2-methyl-1-((2-((7-methyl-2,3,6,7,8,9-hexahydro-5H-benzo[b][1,4,7]trioxa[10]azacyclododecan-12-yl)amino)-7H-pyrrolo[2,3-d]pyrimidin-4-yl)amino)propan-2-ol]		inhibition at 2 µM [1]: > 80%
CN1CCOc2ccc(Nc3ncc(C(F)(F)F)c(O[C@H]4CC[C@@](C)(O)CC4)n3)cc2OCC1 [Example 93, (1s,4s)-1-methyl-4-((2-((4-methyl-3,4,5,6-tetrahydro-2H-benzo[b][1,4,7]dioxazolin-9-yl)amino)-5-(trifluoromethyl)pyrimidin-4-yl)oxy)cyclohexan-1-ol]	< 100 nM	IC50 [1]: 100 to 500 nM
COCc1ccccc1Nc1nc(Nc2ccc3c(c2)OCCN(C)CCO3)ncc1C(F)(F)F [Example 94, N^4-(2-(methoxymethyl)phenyl)-N^2-(4-methyl-3,4,5,6-tetrahydro-2H-benzo[b][1,4,7]dioxazolin-9-yl)-5-(trifluoromethyl)pyrimidin-2,4-diamine]		inhibition at 1 µM [1]: > 0%
CN1CCOc2ccc(Nc3ncc(C(F)(F)F)c(NCC4(C#N)CC4)n3)cc2OCC1 [Example 96, 1-(((2-((4-methyl-3,4,5,6-tetrahydro-2H-benzo[b][1,4,7]dioxazolin-9-yl)amino)-5-(trifluoromethyl)pyrimidin-4-yl)amino)methyl)cyclopropan-1-carbonitrile]		inhibition at 1 µM [1]: > 0%
CN1CCOc2ccc(Nc3ncc(F)c(O[C@H]4CC[C@@](C)(O)CC4)n3)cc2OCC1 [Example 100, (1s,4s)-4-((5-fluoro-2-((4-methyl-3,4,5,6-tetrahydro-2H-benzo[b][1,4,7]dioxazolin-9-yl)amino)pyrimidin-4-yl)oxy)-1-methylcyclohexan-1-ol]	100 to 500 nM	inhibition at 1 µM [1]: 40 to 79%
Cc1cnc(Nc2ccc3c(c2)OCCN(C)CCO3)nc1O[C@H]1CC[C@@](C)(O)CC1 [Example 101, (1s,4s)-1-methyl-4-((5-methyl-2-((4-methyl-3,4,5,6-tetrahydro-2H-benzo[b][1,4,7]dioxazolin-9-yl)amino)pyrimidin-4-yl)oxy)cyclohexan-1-ol]		inhibition at 1 µM [1]: 40 to 79%
CN1CCOc2ccc(Nc3ncc(Cl)c(O[C@H]4CC[C@@](C)(O)CC4)n3)cc2OCC1 [Example 102, (1s,4s)-4-((5-chloro-2-((4-methyl-3,4,5,6-tetrahydro-2H-benzo[b][1,4,7]dioxazolin-9-yl)amino)pyrimidin-4-yl)oxy)-1-methylcyclohexan-1-ol]	< 100 nM	inhibition at 1 µM [1]: > 0%
CN1CCOCCOc2ccc(Nc3ncc(F)c(O[C@H]4CC[C@@](C)(O)CC4)n3)cc2OCC1 [Example 103, (1s,4s)-4-((5-fluoro-2-((7-methyl-2,3,6,7,8,9-hexahydro-5H-benzo[b][1,4,7]trioxa[10]azacyclododecan-12-yl)amino)pyrimidin-4-yl)oxy)-1-methylcyclohexan-1-ol]	100 to 500 nM	IC50 [1]: < 100 nM
CN1CCOCCOc2ccc(Nc3ncc(Cl)c(O[C@H]4CC[C@@](C)(O)CC4)n3)cc2OCC1 [Example 104, (1s,4s)-4-((5-chloro-2-((7-methyl-2,3,6,7,8,9-hexahydro-5H-benzo[b][1,4,7]trioxa[10]azacyclododecan-12-yl)amino)pyrimidin-4-yl)oxy)-1-methylcyclohexan-1-ol]	< 100 nM	
Cc1cnc(Nc2ccc3c(c2)OCCN(C)CCOCCO3)nc1O[C@H]1CC[C@@](C)(O)CC1 [Example 105, (1s,4s)-1-methyl-4-((5-methyl-2-((7-methyl-2,3,6,7,8,9-hexahydro-5H-benzo[b][1,4, 7]trioxa[10]azacyclododecan-12-yl)amino)pyrimidin-4-yl)oxy)cyclohexan-1-ol]	< 100 nM	
CNc1cc(O[C@H]2CC[C@@](C)(O)CC2)nc(Nc2ccc3c(c2)OCCN(C)CCO3)n1 [Example 108, (1s,4s)-1-methyl-4-((2-((4-methyl-3,4,5,6-tetrahydro-2H-benzo[b][1,4,7]dioxazolin-9-yl)amino)-6-(methylamino)pyrimidin-4-yl)oxy)cyclohexan-1-ol]	500 to 1000 nM	
CN1CCOCCOc2ccc(Nc3nc(O[C@H]4CC[C@@](C)(O)CC4)c4ccccc4n3)cc2OCC1 [Example 109, (1s,4s)-1-methyl-4-((2-((7-methyl-2,3,6,7,8,9-hexahydro-5H-benzo[b][1,4,7]trioxa[1 0]azacyclododecan-12-yl)amino)quinazolin-4-yl)oxy)cyclohexan-1-ol]	100 to 500 nM	
